Measured values as given in patent US20230085307A1, “PYRIDAZINONE COMPOUND AND HERBICIDE” (NISSAN CHEMICAL CORPORATION, priority 2019, published 2023).

Compound	melting point
COc1ccccc1-c1sc2ccc(Cl)cc2c1-c1c(OC)c(C)nn(C)c1=O [Compound No. 2-102, 4-(5-chloro-2-(2-methoxyphenyl)benzo[b]thiophen-3-yl)-5-methoxy-2,6-dimethylpyridazin-3(2H)-one]	174 to 175 °C
COc1ccccc1-c1sc2ccc(SC(F)(F)F)cc2c1-c1c(OC)c(C)nn(C)c1=O [Compound No. 2-379, 5-methoxy-4-(2-(2-methoxyphenyl)-5-((trifluoromethyl)thio)benzo[b]thiophen-3-yl)-2,6-di methylpyridazin-3(2H)-one]	152 to 155 °C
